According to patent US20210068659A1, “Use of Octafluorocyclobutane for Lung Imaging” (Lakehead University, priority 2019, published 2021):

Experiments:
[1] = Measured relaxation parameters (19F MRI relaxation times) of pure gases and gas-O2 mixtures in vitro; format: physicochemical; conditions: for T2′ / T1: in vitro, pure gas or gas-O2 breathing mixture; for T1: spin-lattice relaxation time
Source text: The relaxation times for OFCB-O2 mixture In Vivo should be measured experimentally. We measured the relaxation times for pure OFCB and OFCB-O2 mixture in vitro.
While we were not first who measured the relaxation times for pure OFCB, to our knowledge, we are the first who characterized the OFCB-O2 breathing mixture.

[2] = Specific Absorption Rate (SAR) / scan safety inferred from the longer spin-lattice relaxation time; conditions: summary statement
Source text: While the spin-lattice relaxation time is 60% longer for OFCB compared to PFP, which limits the potential number of signal averages, the longer spin-lattice relaxation means that there are a smaller number of radio pulses with OFCB. This means that the Specific Absorption Rate (SAR) is lower for OFCB-O2 scans. […] The lower SAR value of OFCB scans means that ^19F OFCB lung MRI is safer for patients than MRI scans acquired using other inert fluorinated gases.

SMILES | spin-lattice relaxation time longer compared to PFP ([1]; OFCB compared to PFP) [%] | T2′ [1] [ms] | T1 [1] [ms] | safer compared to PFP [2] [%]
FC1(F)C(F)(F)C(F)(F)C1(F)F [OFCB, octafluorocyclobutane] | 60 | 10.5 ± 1.8 | 27.9 ± 0.8 | 60
FC(F)(F)C(F)(F)C(F)(F)F [PFP, perfluoropropane, reference compound] |  | 6.26 ± 0.27 | 18.6 ± 0.4 | 
